Test results: US20160129005A1, “ADENINE DERIVATIVES HAVING IMMUNOMODULATING ANTI-INFLAMMATORY AND ANALGESIC ACTIVITY” (MEDESTEA RESEARCH & PRODUCTION S.p.A., priority 2011, published 2016)

What was measured:
[1] = system: naive murine CD4+ cells; assay: Activation of naive murine CD4+ T cells in vitro (CFSE, cytofluorimeter, ELISA); format: cell-based, mouse
Description: The lymphocytes are cells of the immune defences that direct and amplify the response to attack. Their imbalance or malfunction is also at the root of autoimmune diseases. Successful increase in the ratio in favour of Treg cells can restore the equilibrium of the immune response and combat the resultant disorders. We analysed the activation of isolated naive murine CD4+ cells in the cytofluorimeter for the phenotype CD4+CD62L+CD44−CD25−. The cells were labelled with “5,6-carboxyfluorescein diacetate succinimyl ester” (CFSE) and we evaluated cellular proliferation in quantitative acquisitions with the cytofluorimeter based on the dilution of fluorescence, which depends on the proliferative activity of the cell.

[2] = system: lymphopenic mice with deletion of cd3ε; assay: Chronic intestinal inflammation by transfer of naive CD4 cells; format: in vivo, mouse
Description: To study the effect of […] in idiopathic inflammatory diseases of the intestine, such as Crohn's disease and ulcerative colitis, we used lymphopenic mice with deletion of cd3ε. T lymphocytes are not present in these animals, and transfer of naive CD4 cells causes chronic intestinal inflammation. The simultaneous transfer of regulatory T cells (Treg) CD4^+CD25^+ […] the onset of the disease. […] Compared to mice reconstituted with naive CD4 and Treg cells (healthy controls), mice reconstituted with naive CD4 cells and treated with carriers show a severe oedematous-haemorrhagic picture of the colon with splenomegaly and lymphadenomegaly. […] The accumulation of Alcian-positive mucus filaments is visible inside the lumen of the cryptae (arrowheads). In the mice injected with CD4 cells and treated with carriers, muciparous goblet cells have completely disappeared along the cryptae. The cryptae are markedly hyperplasic with intensive cellular crowding, stratification, obliteration of the lumen (arrowheads), and a high frequency of mitotic cells is encountered (arrows). […] The cryptae are moderately hyperplasic and mucus filaments can be seen inside the lumen of the cryptae (arrowheads).

[3] = system: Male Sprague-Dawley rats; assay: Neuropathic pain: SNI model (lesion of the sciatic nerve); format: in vivo, rat
Description: We evaluated the effect of […] in a model of neuropathic pain: the model of lesion of the sciatic nerve. The characteristic feature of neuropathic pain is that both macroglia and microglia (the cells that support the neurons metabolically) can alter their phenotype (reactive gliosis) as a result of some traumatic-inflammatory peripheral events, duplicated in this model. These phenotypic and functional changes can become permanent and the perception of pain can continue even after its primary cause has disappeared. The cells react to the positive lesion by increasing the glial fibrillary acidic protein (GFAP) and the ionized calcium-binding adapter molecule (IBA1). Male Sprague-Dawley rats (250-300 g; Harlan, Italy) were divided into 5 groups.
Group I was treated with […] daily from day 1 to day 21; group II was treated daily with the drug from day 1 to day 7 and then again with a single dose on day 14; group III was treated with […] on day 1, day 7 and day 14; group IV was treated with only the vehicle and group V was submitted to a sham operation ([…]). […]
Behavioural tests were performed daily from day 0 to day 7 and then on alternate days until day 28. Mechanical allodynia was induced by von Frey filament stimulation and the onset of thermal hyperalgesia was measured using the Ugo Basile apparatus according to Hargreaves' method, 1988.

[4] = system: Tg2576 mice; assay: Alzheimer's transgenic murine model Tg2576: behavioural tests and β-amyloid plaques; format: in vivo, mouse; conditions: 4 and 15 mg/kg i.p. daily, 6th to 13th month
Method: In the transgenic murine model Tg2576 there is no loss of neurons, but there is neuronal deficit and accumulation of β-amyloid plaques. The production of peptides begins to increase rapidly starting from the 6th month of age, accompanied by a progressive cognitive decline. Around the 7th to 8th month, the first plaques develop, which are then diffuse at the 12th month.
The mice were treated with […] at 4 and at 15 mg/kg i.p. daily starting from the 6th month of age up to the 13th. Between the 9th and 10th month and between the 12th and 13th month the mice were submitted to behavioural tests, at the 13th month they were sacrificed and immunohistochemical analyses were performed on brain samples to verify modulation of the β-amyloid plaques.

[5] = system: male Wistar rats; assay: Carrageenan-induced acute inflammation of plantar pads; format: in vivo, rat
Method: The role of […] was investigated by inducing inflammation of the plantar pads of rats with carrageenan, a model that mimics the state of acute inflammation in humans.
Inflammation was induced in male Wistar rats by means of injection of 0.1 ml of carrageenan at 1% in sterile saline solution in the rats' right plantar pad. Peak inflammation occurs 3 hours after injection of carrageenan; at this point (t=0), the rats are treated with […] or diclofenac or indometacin (100 μM in 0.15 ml); the antinociceptive effect of the drugs was measured at 1, 3, 6, 12 and 24 hours after their administration.

[6] = system: mice; assay: Asthma: ovalbumin sensitization and aerosol challenge, BALF; format: in vivo, mouse; conditions: 6 mg/kg intratracheal 30 minutes before OA aerosol; FIG. 38
Method: Sensitization of mice with ovalbumin (OA) adsorbed on aluminium hydroxide, administered intraperitoneally on day 0 and day 7, can cause a similar asthmatic manifestation when the mouse is subsequently (days 19-21) challenged with OA aerosol. The mice were anaesthetized 30 minutes before the OA aerosol and the treated group received an intratracheal injection of […] 6 mg/kg.
Twenty-four hours after the last administration of OA, a bronchoalveolar lavage was carried out with 3×1 ml of PBS free from calcium and magnesium ions.

[7] = system: C57/Bl/6 mice; assay: COPD: acute cigarette smoke exposure, BALF; format: in vivo, mouse; conditions: 6 mg/kg intratracheal; FIG. 39
Method: C57/Bl/6 mice aged 6-8 weeks were exposed to room air or to the smoke of 5 cigarettes/day (Virginia brand with filter; tar 12 mg and nicotine 0.9 mg) for 3 consecutive days. For exposure to smoke, a special cage was used, which permits air exchange with the exterior or with the device that contains the cigarette only due to a mechanical fan, which also allows the smoke to be diluted with the external air (1:8) in order to simulate the situation of a smoker.
Starting on the fourth day, the mice were anaesthetized 30 minutes before exposure to the smoke and were administered 6 mg/kg of […] or vehicle by intratracheal injection. The mice were sacrificed one hour after the end of the treatment and a bronchoalveolar lavage was carried out.

In the case of C=C(C=O)OC(C=O)n1cnc2c(N)ncnc21 (stereo not shown) [2-[1-(6-aminopurin-9-yl)-2-oxoethoxy]prop-2-enal], the “number of proliferating cells (CFSE dilution)” value ([1]; 300 μM, FIG. 21) is reported as “more than ten-fold reduction”, the “secretion of interleukin-2” value ([1]; ELISA in culture supernatant at 24 h) is reported as “significantly reduces” and the “expression of CD44 and shedding of L-selectin CD62L (cells CD44 positive, CD62L negative)” value ([1]; FIG. 21) is reported as “significantly reduces”. The “side scatter of the cells (parameter of activation of CD4 cells)” value ([1]; FIG. 21) was “reduced”, the “colon sections stained with Alcian-PAS” value ([2]; mice injected with CD4 cells) was “muciparous goblet cells positive to Alcian-PAS are identifiable along the cryptae” and the “macroscopic appearance of colon, spleen and lymph nodes” value ([2]; treatment two weeks after injection of naive CD4 cells, FIG. 31) was “dramatic improvement of the inflammation of the colon”. For the same molecule, the “histological scores (0-4, Asseman)” value ([2]; vs carriers, no significant difference to healthy control) was “significant improvement of the lesions”, the “pain (mechanical allodynia, thermal hyperalgesia)” value ([3]; 6 mg/kg and 30 mg/kg i.p., from first day until 7 days after end of treatment, FIGS. 10-15) was “reduces pain significantly” and the “expression of the proteins of reactive gliosis Ibal and GFAP (immunohistochemical analysis)” value ([3]; animals treated daily) was “returns almost to the normal levels”. For the same molecule, the “score obtained in moving to Y (Y-maze test)” value [4] was “very encouraging”, the “finding and climbing onto the platform, hidden or visible (water maze test)” value ([4]; vs vehicle) was “significantly faster than the control” and the “macrophages infiltrating the plantar pad (immunohistochemistry)” value ([5]; biopsies from plantar pads) was “significantly reduces the presence of macrophages”. For the same molecule, the “effect on thermal hyperalgesia compared with diclofenac or indometacin” value ([5]; single dose 6 mg/kg) was “greater than the effect produced by diclofenac or indometacin”, the “thermal hyperalgesia in the plantar pads” value ([5]; single dose 6 mg/kg, local and intravenous, for 24 hours) was “significantly reduces thermal hyperalgesia” and the “immune cells and mediators of inflammation in BALF” value [6] was “Significantly lower levels of immune cells and mediators of inflammation”. The “immune cells and messengers of inflammation in BALF” value [7] was “slight finding of immune cells and of messengers of inflammation”.
